Assay results from patent US10640457B2, “Histone acetyltransferase activators and uses thereof” (The Trustees of Columbia University in the City of New York, priority 2009, dated 2020).
“And” between values parts separate entries of the source, which are not always exact repeats. Identical values can stand only once. “Also recorded” adds a separate entry of the source.

Experiments:
[1] = target: T1, CBP (Homo sapiens, UniProt Q92793); test: In vitro HAT activation assay, CBP; type: biochemical
T1 construct: we will use the catalytic domain of human CBP, PCAF, p300 and GCNS (Enzo Life Sci., USA); purchased Enzo Life Sci
Excerpt: Compounds will be tested for HAT activator activity first, using the HAT Assay kit from Active Motif (USA, CA). For this assay, we will use the catalytic domain of human CBP, PCAF, p300 and GCNS (Enzo Life Sci., USA). The catalytic domains for the remaining HATs will be produced using New England Biolabs K. lactis Protein Expression Kit. […] When assayed against all other HATs, they must show at least a 50 fold greater potency towards CBP and/or PCAF.

[2] = tested on: histone acetylation (ACH3) in hippocampus, cortex, liver; test: Western blot of histone acetylation in mouse tissues after compound administration; type: in vivo, mice
Excerpt: The mice liver and hippocampus were extracted 1 hr after treatment. […] In addition to the mouse liver and hippocampus, the mouse cortex was also extracted.
The BBB was by-passed by giving it through cannulas implanted onto the dorsal hippocampus. Both the hippocampus and cortex were extracted at 2 hrs or 4 hrs after treatment.
Two and four hrs after its administration, the mice were sacrificed and hippocampi were extracted. […] Purity was verified through Nuclear Magnetic Resonance (NMR). […] Hippocampus extraction was made at 3 different time points (0.5, 1 and 2 hrs post treatment). We then ran a western blotting for ACH3.
The compound was i.p. administered at 20 mg/Kg, mice were sacrificed 30 min later, and hippocampi were removed and quickly frozen for WB analysis. […] (each herein incorporated by reference in its entirety). […]

[3] = tested on: Aβ42-infused mice; test: Contextual and cued fear conditioning in Aβ-infused mice (YF2); type: in vivo
Procedure: Contextual and cued fear conditioning was performed to assess whether the compound is capable of ameliorating amyloid-beta (Aβ) induced memory defect. Aβ is a peptide which is elevated in Alzheimer's disease. The hippocampus plays a key role in contextual memory and in Alzheimer's Disease. This type of cognitive test is much faster than other behavioral tasks that require multiple days of training and testing [Q1, Q2]; each herein incorporated by reference in its entirety. The conditioning chamber was in a sound-attenuating box. A clear Plexiglas window allowed the experimenter to film the mouse performance with a camera placed on a tripod and connected to the Freezeframe software (MED Ass. Inc.). To provide background white noise (72 dB), a single computer fan was installed in one of the sides of the sound-attenuating chamber. […] The floor was removable, and after each experimental subject, we cleaned it with 75% ethanol and then with water. Only one animal at a time was present in the experimentation room.
For the cued and contextual conditioning experiments, mice were placed in the conditioning chamber for 2 min before the onset of a discrete tone (CS) (a sound that lasted 30 sec at 2800 Hz and 85 dB). In the last 2 sec of the CS, mice were given a foot shock (US) of 0.8 mA for 2 sec through the bars of the floor. […] Freezing behavior, defined as the absence of all movement except for that necessitated by breathing, was scored using the Freezeview software.
To evaluate contextual fear learning, freezing was measured for 5 min (consecutively) in the chamber in which the mice was trained 24 hr after training. To evaluate cued fear learning, following contextual testing, the mice were placed in a novel context (triangular cage with smooth flat floor) for 2 min (pre-CS test), after which they were exposed to the CS for 3 min (CS test), and freezing was measured. Sensory perception of the shock was determined through threshold assessment. […] Initially, a […] shock was delivered for 1 sec, and the animal behavior was evaluated for flinching, jumping, and vocalization. […]

[4] = target: T2, HDAC11 (Homo sapiens, UniProt Q96DB2); test: HDAC11 fluorogenic activity assay; conditions: for % Activity: Repeat1/Repeat2, listed as OA2
T2 sequence (Q96DB2 1-347): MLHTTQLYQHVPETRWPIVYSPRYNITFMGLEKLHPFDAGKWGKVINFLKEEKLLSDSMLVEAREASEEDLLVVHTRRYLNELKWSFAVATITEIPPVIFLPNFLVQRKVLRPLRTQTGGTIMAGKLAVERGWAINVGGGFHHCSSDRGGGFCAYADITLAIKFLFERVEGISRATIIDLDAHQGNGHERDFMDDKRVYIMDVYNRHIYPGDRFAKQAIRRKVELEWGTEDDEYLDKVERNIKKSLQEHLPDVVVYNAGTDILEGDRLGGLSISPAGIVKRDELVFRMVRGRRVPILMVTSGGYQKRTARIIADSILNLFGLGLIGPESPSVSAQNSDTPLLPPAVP

T1 sequence (Q92793 1323-1700 limits assumed): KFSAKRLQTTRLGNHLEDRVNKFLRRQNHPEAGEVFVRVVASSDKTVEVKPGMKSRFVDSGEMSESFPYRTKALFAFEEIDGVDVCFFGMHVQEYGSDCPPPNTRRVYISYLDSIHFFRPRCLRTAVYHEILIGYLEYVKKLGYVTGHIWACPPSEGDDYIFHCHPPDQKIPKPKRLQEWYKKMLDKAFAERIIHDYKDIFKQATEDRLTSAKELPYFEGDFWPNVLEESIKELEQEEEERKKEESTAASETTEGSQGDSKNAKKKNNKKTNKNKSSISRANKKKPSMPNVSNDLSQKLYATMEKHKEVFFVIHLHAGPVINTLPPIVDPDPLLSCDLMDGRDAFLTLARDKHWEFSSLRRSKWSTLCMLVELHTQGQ

CCOc1cccc(OCCN(C)C)c1C(=O)Nc1ccc(Cl)c(C(F)(F)F)c1 [YF2]
EC50 [1]: 2700 nM
acetylation of H3K4, H3K9, H3K14, H4K5, H4K8, H4K12, H4K16 and H2B in hippocampus ([2]; 20 mg/Kg i.p., sacrificed 30 min later): increased
ACH3 in hippocampus ([2]; 50 mg/kg i.p., 2 and 4 hrs after administration): increase
ACH3 levels in hippocampus ([2]; 5, 10, 20 mg/Kg i.p. in saline, 0.5, 1 and 2 hrs, except 1 hr-10 mg/kg): dramatically increased
histone acetylation levels following Aβ elevation ([2]; after foot shock, FIG. 80): restores
histone acetylation levels following Aβ elevation ([2]; basal conditions, FIG. 79): restores
crossing of the blood brain barrier (BBB) ([2]; concluded from brain histone acetylation after i.p. administration): able to cross the BBB; also recorded: crosses the BBB and the cell membrane
Aβ-induced decrease in H3 acetylation levels in hippocampus ([2]; i.p. 5 mg/kg, Aβ 200 nM infused onto dorsal hippocampi, 5 mg/kg): able to rescue; also recorded: rescued
histone 3 acetylation levels of the hippocampus ([2]; i.p., FIG. 1): increases
contextual memory, compound alone ([3]; 20 mg/kg i.p., no Aβ): did not affect
contextual fear memory deficit (freezing time) ([3]; Aβ42-infused mice, i.p. 20 mg/kg 2 hrs or 5 mg/kg 30 min before the electric shock): ameliorated; also recorded: dramatically increasing
cued memory ([3]; different groups (vehicle, YF2, Aβ, YF2 plus Aβ)): not changed
IC50 [4]: > 200000 nM
% Activity ([4]; OA2 Log[nM] 0.5): 86.81%
% Activity ([4]; OA2 Log[nM] 4.5): 108.09%
% Activity ([4]; OA2 Log[nM] 5.3): 132.07% and 115.35%
